Columns and labels:
Test in all cases: Post-emergence test experiment (greenhouse pot, spray at 2-3 leaf stage)
Assay type in all cases: in vivo
Details in all cases: 1000 g/ha; post-emergence spray at 2-3 leaf stage; assessed after 3 weeks; fresh weight inhibition rate
[1] = tested on: Abutilon theophrasti
Outline: (§1)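 Activity graded levels 0-5 by fresh-weight inhibition (level 5 above 85%, level 0 below 5%), assessed 3 weeks after treatment. Plants grown in greenhouse pots were sprayed post-emergence at 2-3 leaves using acetone/tween-80 solutions with methyl oleate synergist (1.5 L/ha).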

[2] = tested on: Digitaria sanguinalis
Outline: as §1

[3] = tested on: Echinochloa crusgalli
Outline: as §1

[4] = tested on: Galium spurium
Outline: as §1

[5] = tested on: Monochoria vaginalis
Outline: as §1

Compound | Activity level (growth inhibition rate) Abutilon theophrasti [1] | Activity level (growth inhibition rate) Digitaria sanguinalis [2] | Activity level (growth inhibition rate) Echinochloa crusgalli [3] | Activity level (growth inhibition rate) Galium spurium [4] | Activity level (growth inhibition rate) Monochoria Vaginalis [5]
CC(Oc1nc(F)c(Cl)c(N)c1Cl)C(=O)SCCc1cnno1 (stereo not drawn) [Compound 152] | 5 (Level 5: the growth inhibition rate is greater than 85%) | 5 (Level 5: the growth inhibition rate is greater than 85%) | 5 (Level 5: the growth inhibition rate is greater than 85%) | 5 (Level 5: the growth inhibition rate is greater than 85%) | 5 (Level 5: the growth inhibition rate is greater than 85%)
CC(Oc1nc(F)c(Cl)c(N)c1Cl)C(=O)OCc1conn1 (stereo not drawn) [Compound 153] | 5 (Level 5: the growth inhibition rate is greater than 85%) | 5 (Level 5: the growth inhibition rate is greater than 85%) | 5 (Level 5: the growth inhibition rate is greater than 85%) | 5 (Level 5: the growth inhibition rate is greater than 85%) | 5 (Level 5: the growth inhibition rate is greater than 85%)
CC(Oc1nc(F)c(Cl)c(N)c1Cl)C(=O)SCc1cccs1 (stereo not drawn) [Compound 154] | 5 (Level 5: the growth inhibition rate is greater than 85%) | 5 (Level 5: the growth inhibition rate is greater than 85%) | 5 (Level 5: the growth inhibition rate is greater than 85%) | 5 (Level 5: the growth inhibition rate is greater than 85%) | 5 (Level 5: the growth inhibition rate is greater than 85%)
Cc1sc(C)c(COC(=O)C(C)Oc2nc(F)c(Cl)c(N)c2Cl)c1C (stereo not drawn) [Compound 155] | 5 (Level 5: the growth inhibition rate is greater than 85%) | 5 (Level 5: the growth inhibition rate is greater than 85%) | 5 (Level 5: the growth inhibition rate is greater than 85%) | 5 (Level 5: the growth inhibition rate is greater than 85%) | 5 (Level 5: the growth inhibition rate is greater than 85%)
CC(Oc1nc(F)c(Cl)c(N)c1Cl)C(=O)SCc1nccs1 (stereo not drawn) [Compound 156] | 5 (Level 5: the growth inhibition rate is greater than 85%) | 5 (Level 5: the growth inhibition rate is greater than 85%) | 5 (Level 5: the growth inhibition rate is greater than 85%) | 5 (Level 5: the growth inhibition rate is greater than 85%) | 5 (Level 5: the growth inhibition rate is greater than 85%)
Cc1ncc(COC(=O)C(C)Oc2nc(F)c(Cl)c(N)c2Cl)s1 (stereo not drawn) [Compound 157] | 5 (Level 5: the growth inhibition rate is greater than 85%) | 5 (Level 5: the growth inhibition rate is greater than 85%) | 5 (Level 5: the growth inhibition rate is greater than 85%) | 5 (Level 5: the growth inhibition rate is greater than 85%) | 5 (Level 5: the growth inhibition rate is greater than 85%)
CC(Oc1nc(F)c(Cl)c(N)c1Cl)C(=O)OCc1cscn1 (stereo not drawn) [Compound 158] | 5 (Level 5: the growth inhibition rate is greater than 85%) | 5 (Level 5: the growth inhibition rate is greater than 85%) | 5 (Level 5: the growth inhibition rate is greater than 85%) | 5 (Level 5: the growth inhibition rate is greater than 85%) | 5 (Level 5: the growth inhibition rate is greater than 85%)
CC(Oc1nc(F)c(Cl)c(N)c1Cl)C(=O)SCc1cncs1 (stereo not drawn) [Compound 159] | 5 (Level 5: the growth inhibition rate is greater than 85%) | 5 (Level 5: the growth inhibition rate is greater than 85%) | 5 (Level 5: the growth inhibition rate is greater than 85%) | 5 (Level 5: the growth inhibition rate is greater than 85%) | 5 (Level 5: the growth inhibition rate is greater than 85%)
CC(Oc1nc(F)c(Cl)c(N)c1Cl)C(=O)OCc1ccns1 (stereo not drawn) [Compound 160] | 5 (Level 5: the growth inhibition rate is greater than 85%) | 5 (Level 5: the growth inhibition rate is greater than 85%) | 5 (Level 5: the growth inhibition rate is greater than 85%) | 5 (Level 5: the growth inhibition rate is greater than 85%) | 5 (Level 5: the growth inhibition rate is greater than 85%)
CC(Oc1nc(F)c(Cl)c(N)c1Cl)C(=O)SCc1ccsn1 (stereo not drawn) [Compound 161] | 5 (Level 5: the growth inhibition rate is greater than 85%) | 5 (Level 5: the growth inhibition rate is greater than 85%) | 5 (Level 5: the growth inhibition rate is greater than 85%) | 5 (Level 5: the growth inhibition rate is greater than 85%) | 5 (Level 5: the growth inhibition rate is greater than 85%)
CC(Oc1nc(F)c(Cl)c(N)c1Cl)C(=O)OCCc1cnsc1 (stereo not drawn) [Compound 162] | 5 (Level 5: the growth inhibition rate is greater than 85%) | 5 (Level 5: the growth inhibition rate is greater than 85%) | 5 (Level 5: the growth inhibition rate is greater than 85%) | 5 (Level 5: the growth inhibition rate is greater than 85%) | 5 (Level 5: the growth inhibition rate is greater than 85%)
CC(Oc1nc(F)c(Cl)c(N)c1Cl)C(=O)OCc1nccs1 (stereo not drawn) [Compound 163] | 5 (Level 5: the growth inhibition rate is greater than 85%) | 5 (Level 5: the growth inhibition rate is greater than 85%) | 5 (Level 5: the growth inhibition rate is greater than 85%) | 5 (Level 5: the growth inhibition rate is greater than 85%) | 5 (Level 5: the growth inhibition rate is greater than 85%)
CC(Oc1nc(F)c(Cl)c(N)c1Cl)C(=O)OCc1nncs1 (stereo not drawn) [Compound 164] | 5 (Level 5: the growth inhibition rate is greater than 85%) | 5 (Level 5: the growth inhibition rate is greater than 85%) | 5 (Level 5: the growth inhibition rate is greater than 85%) | 5 (Level 5: the growth inhibition rate is greater than 85%) | 5 (Level 5: the growth inhibition rate is greater than 85%)
CC(Oc1nc(F)c(Cl)c(N)c1Cl)C(=O)SCCc1ncsn1 (stereo not drawn) [Compound 165] | 5 (Level 5: the growth inhibition rate is greater than 85%) | 5 (Level 5: the growth inhibition rate is greater than 85%) | 5 (Level 5: the growth inhibition rate is greater than 85%) | 5 (Level 5: the growth inhibition rate is greater than 85%) | 5 (Level 5: the growth inhibition rate is greater than 85%)
CC(Oc1nc(F)c(Cl)c(N)c1Cl)C(=O)OCc1cnns1 (stereo not drawn) [Compound 166] | 5 (Level 5: the growth inhibition rate is greater than 85%) | 5 (Level 5: the growth inhibition rate is greater than 85%) | 5 (Level 5: the growth inhibition rate is greater than 85%) | 5 (Level 5: the growth inhibition rate is greater than 85%) | 5 (Level 5: the growth inhibition rate is greater than 85%)
